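48-hour exposure; five concentrations; linearly interpolated endpoints. Abbreviation: GI50, concentration required for 50% inhibition of growth.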 Active and inactive are the calls of the source. Rule as the data show it: active = GI50 up to about 1.1 µM and inactive = higher.
Experiments:
Test in all cases: inhibition of tumour cell growth, NCI panel, 48 h
[1] = test system: COLO 205
[2] = test system: MOLT-4
[3] = test system: NCI-H460
[4] = test system: NCI-H522
[5] = test system: LOX IMVI
[6] = test system: IGROV-1
[7] = test system: SK-MEL-2
[8] = test system: DMS-273
[9] = test system: RXF 393
[10] = test system: HL-60
[11] = test system: UACC-257
[12] = test system: OVCAR-8
[13] = test system: SK-OV-3
[14] = test system: SNB-75
[15] = test system: KM12
[16] = test system: U-251
[17] = test system: KM-20L2
[18] = test system: A498
[19] = test system: HT-29
[20] = test system: HCC 2998
[21] = test system: Malme-3M
[22] = test system: A549
[23] = test system: SR
[24] = test system: RXF 631
[25] = test system: SW-620
[26] = test system: M19-MEL
[27] = test system: SF-268
[28] = test system: ACHN
[29] = test system: CAKI-1
[30] = test system: RPMI-8226
[31] = test system: UO-31
[32] = test system: HOP-18
[33] = test system: HCT-15
[34] = test system: K562
[35] = test system: SN12C
[36] = test system: SNB-78
[37] = test system: SNB-19
[38] = test system: OVCAR-4
[39] = test system: UACC-62
[40] = test system: HOP-92
[41] = test system: LXFL 529
[42] = test system: M14
[43] = test system: SF-295
[44] = test system: HOP-62
[45] = test system: CCRF-CEM
[46] = test system: OVCAR-5
[47] = test system: DLD-1
[48] = test system: 786-0
[49] = test system: HCT-116
[50] = test system: TK-10
[51] = test system: SF-539
[52] = test system: SK-MEL-5
[53] = test system: SK-MEL-28
[54] = test system: DMS-114
[55] = test system: NCI-H23
[56] = test system: OVCAR-3
[57] = test system: EKVX
[58] = test system: NCI-H226

Structure (SMILES): COc1cc2ccnc3c2c(c1OC)-c1coc(SC)c1-3
- GI50 [1]: > 100 µM (inactive)
- GI50 [2]: 22.1 µM (inactive)
- GI50 [3]: 97.3 µM (inactive)
- GI50 [4]: 32.4 µM (inactive)
- GI50 [5]: 82 µM (inactive)
- GI50 [6]: > 100 µM (inactive)
- GI50 [7]: > 100 µM (inactive)
- GI50 [8]: 60.8 µM (inactive)
- GI50 [9]: 4.67 µM (inactive)
- GI50 [10]: 9.18 µM (inactive)
- GI50 [11]: > 100 µM (inactive)
- GI50 [12]: 35.2 µM (inactive)
- GI50 [13]: > 100 µM (inactive)
- GI50 [14]: 19.7 µM (inactive)
- GI50 [15]: > 100 µM (inactive)
- GI50 [16]: 67.1 µM (inactive)
- GI50 [17]: > 100 µM (inactive)
- GI50 [18]: 19.5 µM (inactive)
- GI50 [19]: 94.8 µM (inactive)
- GI50 [20]: > 100 µM (inactive)
- GI50 [21]: > 100 µM (inactive)
- GI50 [22]: > 100 µM (inactive)
- GI50 [23]: 40.2 µM (inactive)
- GI50 [24]: > 100 µM (inactive)
- GI50 [25]: > 100 µM (inactive)
- GI50 [26]: > 100 µM (inactive)
- GI50 [27]: 92 µM (inactive)
- GI50 [28]: > 100 µM (inactive)
- GI50 [29]: 20.8 µM (inactive)
- GI50 [30]: 13 µM (inactive)
- GI50 [31]: 26.4 µM (inactive)
- GI50 [32]: 38.6 µM (inactive)
- GI50 [33]: > 100 µM
- GI50 [34]: > 100 µM (inactive)
- GI50 [35]: > 100 µM (inactive)
- GI50 [36]: > 100 µM (inactive)
- GI50 [37]: > 100 µM (inactive)
- GI50 [38]: 48.6 µM (inactive)
- GI50 [39]: 86.1 µM (inactive)
- GI50 [40]: 29 µM (inactive)
- GI50 [41]: 78.7 µM (inactive)
- GI50 [42]: > 100 µM (inactive)
- GI50 [43]: 13.4 µM (inactive)
- GI50 [44]: 54.8 µM (inactive)
- GI50 [45]: > 10 µM (inactive)
- GI50 [46]: > 100 µM (inactive)
- GI50 [47]: 95.1 µM (inactive)
- GI50 [48]: 57 µM (inactive)
- GI50 [49]: 52.8 µM (inactive)
- GI50 [50]: > 100 µM (inactive)
- GI50 [51]: 56.5 µM (inactive)
- GI50 [52]: 54.7 µM (inactive)

Structure (SMILES): O=C1c2ccccc2C2(O)Nc3cc(O)ccc3C12O (stereo not given)
- GI50 [1]: > 100 µM (inactive)
- GI50 [2]: > 100 µM (inactive)
- GI50 [3]: > 100 µM (inactive)
- GI50 [4]: > 100 µM (inactive)
- GI50 [5]: > 100 µM (inactive)
- GI50 [6]: > 100 µM (inactive)
- GI50 [7]: > 100 µM (inactive)
- GI50 [8]: > 100 µM (inactive)
- GI50 [9]: > 100 µM (inactive)
- GI50 [53]: > 100 µM (inactive)
- GI50 [10]: > 100 µM (inactive)
- GI50 [12]: > 100 µM (inactive)
- GI50 [13]: > 100 µM (inactive)
- GI50 [14]: > 100 µM (inactive)
- GI50 [15]: > 100 µM (inactive)
- GI50 [16]: > 100 µM (inactive)
- GI50 [17]: > 100 µM (inactive)
- GI50 [18]: > 100 µM (inactive)
- GI50 [19]: > 100 µM (inactive)
- GI50 [21]: > 100 µM (inactive)
- GI50 [22]: > 100 µM (inactive)
- GI50 [24]: > 100 µM (inactive)
- GI50 [25]: > 100 µM (inactive)
- GI50 [27]: > 100 µM (inactive)
- GI50 [28]: > 100 µM (inactive)
- GI50 [29]: > 100 µM (inactive)
- GI50 [30]: > 100 µM (inactive)
- GI50 [32]: > 100 µM (inactive)
- GI50 [33]: > 100 µM
- GI50 [34]: > 100 µM (inactive)
- GI50 [35]: > 100 µM (inactive)
- GI50 [36]: > 100 µM (inactive)
- GI50 [37]: > 100 µM (inactive)
- GI50 [38]: > 100 µM (inactive)
- GI50 [39]: > 100 µM (inactive)
- GI50 [40]: > 100 µM (inactive)
- GI50 [54]: > 100 µM (inactive)
- GI50 [55]: > 100 µM (inactive)
- GI50 [41]: > 100 µM (inactive)
- GI50 [56]: > 100 µM (inactive)
- GI50 [42]: > 100 µM (inactive)
- GI50 [43]: > 100 µM (inactive)
- GI50 [57]: > 100 µM (inactive)
- GI50 [44]: > 100 µM (inactive)
- GI50 [45]: > 100 µM (inactive)
- GI50 [46]: > 100 µM (inactive)
- GI50 [47]: > 100 µM (inactive)
- GI50 [48]: > 100 µM (inactive)
- GI50 [49]: > 100 µM (inactive)
- GI50 [58]: > 100 µM (inactive)
- GI50 [50]: > 100 µM (inactive)
- GI50 [51]: > 100 µM (inactive)
- GI50 [52]: > 100 µM (inactive)

— ChEMBL document CHEMBL1201862, “PubChem BioAssay data set” (2004)
